{"source": "patent US10329304B2", "about": "“Compounds and methods for inhibition of hedgehog signaling and phosphodiesterase” (Vanderbilt University, priority 2014, dated 2019)", "key": {"[1]": {"test_system": "otic kino-cilia motility", "experiment": "Video-microscopy of zebrafish otic kino-cilia", "type": "in vivo", "conditions": "2 μM", "excerpt": "For visualizing ciliary beating, live embryos (20 hpf) were removed from their chorion, mounted in SeaPlaque low-melting agarose (Biowhittaker Molecular Applications) (1.0% in embryo medium) in microwells of glass-bottom culture dishes (MatTek), and covered with embryo medium. Movies were acquired by using OPENLAB software (Improvision) at 55 frames per second with a 63×DIC objective on a Zeiss Axiovert 200 inverted fluorescence microscope equipped with a Retiga Exi Fast camera (Qimaging). Kymographs were obtained by drawing a line across a ciliary trajectory by using ImageJ software (National Institutes of Health, developed by W. Rasband) and Multiple-Kymograph plugin (developed by J. Rietdorf and A. Seitz)."}, "[2]": {"test_system": "zebrafish embryos", "experiment": "Zebrafish embryo phenotypic assay (ZF)", "type": "in vivo", "conditions": "for Hh-deficient mutant phenotype in embryos: 2 μM from 4 hpf where stated", "outline": "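Phenotype scored by gross morphology at 24, 48 and 72 hours post-fertilization. Compound added at 5 hpf, from 1 mM or 10 mM stocks in DMSO, to about 10 wild-type AB embryos in E3 water. In the original screen, 5 μM final was applied near 4 hpf at 28.5 °C.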"}, "[3]": {"test_system": "Gli-Luc reporter activity", "experiment": "Gli-luciferase reporter under Gli overexpression", "type": "cell-based", "description": "For Hh signaling assays, Shh-Light2 cells stably transfected with Gli-Luciferase reporter construct were used along with Shh-conditioned media, as previously described^7. Alternatively, 3 μM purmorphamine or 20 nM Smoothened agonist (SAG) (Santa Cruz Biotechnology, Santa Cruz, Calif.) was used to induce Hh signaling. Reporter cells were seeded in 96-well plates and incubated overnight with the various concentrations of eggmanone and Shh-conditioned media. To assess the effects of overexpression of Gli-2, PDE4D3 and DN-PDE4D3 on Hh signaling, mammalian expression vectors containing these constructs were transfected into Shh-Light2 cells in 96-well plates using Fugene6 (Roche), according to manufacturer's instructions. The transfected or Shh-stimulated cells were incubated overnight with the various concentrations of compound. The cells were then lysed, and cell extracts were subjected to Steady-Glo luciferase assay (Promega) according to manufacturer's instructions. The results were normalized to cell titer, as determined using Cell Titer-Glo luminescence assay (Promega)."}, "[4]": {"test_system": "Ptch1 transcription", "experiment": "Sufu−/− mouse embryonic fibroblasts qRT-PCR", "type": "cell-based", "conditions": "Mus musculus, Fibroblast; read-out: Sufu Null (Ptc) % Inh., 10 μM"}, "[5]": {"test_system": "H82", "experiment": "Cell killing EC50 in H82 lung cancer cells (Table 10)", "type": "cell-based", "conditions": "human cancer cells", "description": "It is anticipated that compounds disclosed herein could serve as an anti-tumor, anti-angiogenic, anti-metastatic, agent in the treatment of cancer. To this end, a series of clinically relevant cancer lines were assayed and the cell-killing EC50s for compounds according to the subject matter disclosed herein are provided in Table 10."}}, "note": "“Also recorded” adds a separate entry of the source.", "data": [{"smiles": "C=C(C)Cn1c(SCC(=O)c2cccs2)nc2sc3c(c2c1=O)CCCC3", "note": "[EGM, Eggmanone]", "values": [{"measurement": "Otic kino-cilia movement", "setting": "[1]", "value": "cilium movement is markedly reduced"}, {"measurement": "Otic kino-cilia movement", "setting": "[1]; listed as Egm", "value": "cilia movement is markedly reduced"}, {"measurement": "Hh-deficient mutant phenotype in embryos", "setting": "[2]", "value": "exhibited range of phenotypes found in Hh pathway mutants"}, {"measurement": "Gli-luciferase reporter activity under Gli2 overexpression", "setting": "[3]", "value": "had no significant effect on Gli-luciferase reporter activity under Gli2 overexpression conditions"}, {"measurement": "inhibition at 10 µM", "setting": "[4]", "value": 65.6, "unit": "%"}, {"measurement": "CELL KILLING EC50 (μM) Lung H82", "setting": "[5]", "value": "UnCh"}]}, {"smiles": "C=C(C)Cn1c(SCC(=O)c2cccs2)nc2sc3c(c2c1=O)CCCC3", "note": "[Eggmanone, 3-(2-methylallyl)-2-((2-oxo-2-(thiophen-2-yl)ethyl)thio)-5,6,7,8-tetrahydrobenzo[4,5]thieno[2,3-d]pyrimidine-4(3H)-one]", "values": [{"measurement": "Otic kino-cilia movement", "setting": "[1]", "value": "markedly less motile"}, {"measurement": "Otic kino-cilia movement", "setting": "[1]; listed as eggmanone", "value": "markedly less motile"}, {"measurement": "Hh-deficient mutant phenotype in embryos", "setting": "[2]", "value": "caused a number of phenotypes resembling those of Hh-deficient mutant embryos; also recorded: exhibited range of phenotypes found in Hh pathway mutants"}, {"measurement": "Hh-deficient mutant phenotype in embryos", "setting": "[2]; listed as eggmanone", "value": "caused a number of phenotypes resembling those of Hh-deficient mutant embryos"}, {"measurement": "Gli-luciferase reporter activity under Gli2 overexpression", "setting": "[3]", "value": "did not block Gli-Luc reporter activity in cells transiently overexpressing Gli2"}]}, {"smiles": "O=C(CSc1nc2sc3c(c2c(=O)n1C1CC1)CCCC3)c1cccs1", "note": "[JEH-3-039-2]", "values": [{"measurement": "ZF Phenotype EC100", "setting": "[2]; wild-type embryonic zebrafish, dosed 5 hpf", "value": 0.1, "unit": "µM"}, {"measurement": "inhibition at 10 µM", "setting": "[4]", "value": 80.4, "unit": "%"}]}, {"smiles": "C=CCn1c(SCC(=O)c2cccs2)nc2sc3c(c2c1=O)CCCC3", "note": "[JEH-3-039-3]", "values": [{"measurement": "inhibition at 10 µM", "setting": "[4]", "value": 38.1, "unit": "%"}, {"measurement": "CELL KILLING EC50 (μM) Lung H82", "setting": "[5]", "value": "UnCh"}]}, {"smiles": "C=C(C)Cn1c(SCC(=O)c2ccccc2)nc2sc3c(c2c1=O)CCCC3", "note": "[JEH-3-045-1]", "values": [{"measurement": "inhibition at 10 µM", "setting": "[4]", "value": 47.6, "unit": "%"}]}, {"smiles": "C=C(C)Cn1c(SCC(=O)c2ccncc2)nc2sc3c(c2c1=O)CCCC3", "note": "[JEH-3-048-1]", "values": [{"measurement": "CELL KILLING EC50 (μM) Lung H82", "setting": "[5]", "value": "UnCh"}]}, {"smiles": "C=C(C)Cn1c(SCC(=O)c2ccccn2)nc2sc3c(c2c1=O)CCCC3", "note": "[JEH-3-063]", "values": [{"measurement": "CELL KILLING EC50 (μM) Lung H82", "setting": "[5]", "value": "UnCh"}]}, {"smiles": "C=C(C)Cn1c(SCC(=O)c2nccs2)nc2sc3c(c2c1=O)CCCC3", "note": "[JEH-3-069-1]", "values": [{"measurement": "CELL KILLING EC50 (μM) Lung H82", "setting": "[5]", "value": "UnCh"}]}]}
